The record followed here is patent publication US5603949A, “Use of a tocopherol phosphate or one of its derivatives, for the preparation of cosmetic or pharmaceutical compositions and compositions so obtained” (LVMH Recherche, priority 1991, dated 1997).

The experiment has as its target T1, phospholipase A2 (Rattus norvegicus, UniProt P14423).
T1 construct: The phospholipase A2 is isolated from the peritoneal cavity of a rat; from tissue; host or cells: peritoneal cavity of a rat
T1 sequence (P14423 22-146): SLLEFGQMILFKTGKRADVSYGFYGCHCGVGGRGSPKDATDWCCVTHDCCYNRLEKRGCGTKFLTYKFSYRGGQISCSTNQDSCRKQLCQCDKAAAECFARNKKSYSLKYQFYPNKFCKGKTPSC
In words: inhibition of phospholipase A2 (PLA2): release of 14C-labeled fatty acid from phosphatidylethanolamine. The experiment is classed as biochemical. As to conditions: PLA2 isolated from peritoneal cavity of a rat; 0.1M Tris-HCl, pH=9, Ca++; 20 min preincubation, then 20 min with substrate, 37° C.; read-out: 50% inhibitory concentration (IC50) (converted). How it is done: The inhibition of phospholipase A2, which is involved in the production of allergy and inflammation mediators, especially in the inflammatory reaction of skin allergies, is measured according to the protocol described by H. W. Chang, I. Kudo, M. Tomita and K. Inoue in J. Biochem. (Tokyo) 102(1): 147-154 (1987).
The phospholipase A2 is isolated from the peritoneal cavity of a rat. PLA2 hydrolyzes the ester linkage in the 2-position of the glycerol of a phosphatidylethanolamine, this position being occupied by a fatty acid residue labeled with carbon 14. The radioactive fatty acid released will be extracted and then quantitatively analyzed by liquid scintillation. In the presence of the PLA2 inhibitor, this hydrolysis will be reduced and less released fatty acid will therefore be determined.
In practice, the PLA2 and the test product are placed in a 0.1M Tris-HCl buffer, pH=9, containing 4 mmol of Ca^++ and the mixture is incubated for 20 min at 37° C., with agitation. After this contact time, the labeled phosphatidylethanolamine is added and incubation is continued for 20 min at 37° C., with agitation, to allow the hydrolysis of this substrate. n-Heptane is then used to extract the labeled fatty acid released during the hydrolysis, the latter then being quantitatively analyzed by liquid scintillation. […]

Structures can show the parent of a compound that is named as a salt.

With `Cc1cc(OP(=O)(O)O)cc2c1OC(C)(CCCC(C)CCCC(C)CCCC(C)C)CC2` (stereo not shown) [disodium salt of delta-tocopherol phosphate], the IC50 was 20.7 µM.
